The target of one assay is T1, PDGF-Ra (Homo sapiens, UniProt P16234).
T1 construct: host or cells: G-292 human osteosarcoma cells
Put plainly: Inhibitory activity against PDGF-Ra phosphorylation by PDGF-AA stimulation using G292. In kind it is cell-based. To be noted: for IC50: > means inhibition at indicated concentration not more than 50%, < and << not less than 50%, read-out: PDGF (E) IC50; for inhibition at 0.1 µM: G292, figure within parentheses in >100( ), at 100 nM, read-out: PDGF (E) inhibition (%) at 100 nM. In outline:
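In G-292 osteosarcoma cells kept overnight in 0.1% FBS, compound exposure (1 hr, 37 °C) preceded PDGF-AA stimulation at 50 ng/ml for 5 min; receptor phosphotyrosine was then detected by PY-20 capture ELISA.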

A further assay concerns the target T2, c-kit (Homo sapiens, UniProt P10721).
T2 construct: MO7e (human megakaryocytic leukemia cell line) which had been arrested for 20 hr; endogenous in cells; host or cells: MO7e human megakaryocytic leukemia cell line
Put plainly: Inhibitory activity against c-kit autophosphorylation (MO7e cells, h-SCF). In kind it is cell-based. Conditions: for inhibition at 1 µM: Mo7e, figure within parentheses in −( ) or >1000( ), at 1000 nM; for IC50: MO7e cells, 50 ng/ml h-SCF, read-out: c-kit IC50. The essentials: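 Growth-arrested (20 hr) MO7e; cpd in DMSO, 1 hr; h-SCF 50 ng/ml, 5 min; lyse. ELISA: anti-pTyr (PY-20) capture, anti-c-kit 1° Ab, HRP anti-rabbit 2° Ab, A450.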

Bounds are passed on as bounds.

T1 sequence (P16234 24-1089): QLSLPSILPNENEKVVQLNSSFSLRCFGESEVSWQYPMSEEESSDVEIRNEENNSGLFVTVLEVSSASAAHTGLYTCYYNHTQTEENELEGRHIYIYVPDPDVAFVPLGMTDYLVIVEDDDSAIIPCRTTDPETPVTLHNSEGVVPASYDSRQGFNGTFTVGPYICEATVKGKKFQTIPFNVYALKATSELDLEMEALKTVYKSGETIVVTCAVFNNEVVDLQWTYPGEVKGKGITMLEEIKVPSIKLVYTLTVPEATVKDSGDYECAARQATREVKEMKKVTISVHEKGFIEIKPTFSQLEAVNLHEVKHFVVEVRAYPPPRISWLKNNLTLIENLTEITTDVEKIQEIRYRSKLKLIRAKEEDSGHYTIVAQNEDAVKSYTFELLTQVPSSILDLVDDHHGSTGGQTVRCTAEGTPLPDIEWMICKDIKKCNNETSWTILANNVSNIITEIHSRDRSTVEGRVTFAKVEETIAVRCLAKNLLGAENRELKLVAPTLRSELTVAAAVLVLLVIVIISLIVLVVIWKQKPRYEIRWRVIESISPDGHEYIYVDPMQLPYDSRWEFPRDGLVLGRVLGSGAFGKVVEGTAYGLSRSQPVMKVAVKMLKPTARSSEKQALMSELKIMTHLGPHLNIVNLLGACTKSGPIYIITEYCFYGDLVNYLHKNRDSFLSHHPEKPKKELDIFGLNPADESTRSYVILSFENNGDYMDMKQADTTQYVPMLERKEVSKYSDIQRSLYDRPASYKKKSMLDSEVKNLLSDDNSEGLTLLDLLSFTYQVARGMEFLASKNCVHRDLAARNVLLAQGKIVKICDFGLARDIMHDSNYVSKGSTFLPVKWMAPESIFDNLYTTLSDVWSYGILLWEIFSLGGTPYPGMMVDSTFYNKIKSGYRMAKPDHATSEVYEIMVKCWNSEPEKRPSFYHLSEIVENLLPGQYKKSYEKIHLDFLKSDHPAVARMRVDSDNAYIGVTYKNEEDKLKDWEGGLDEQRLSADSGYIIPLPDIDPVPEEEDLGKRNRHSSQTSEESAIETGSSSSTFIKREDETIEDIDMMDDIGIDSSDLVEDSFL
T2 sequence (P10721 26-976): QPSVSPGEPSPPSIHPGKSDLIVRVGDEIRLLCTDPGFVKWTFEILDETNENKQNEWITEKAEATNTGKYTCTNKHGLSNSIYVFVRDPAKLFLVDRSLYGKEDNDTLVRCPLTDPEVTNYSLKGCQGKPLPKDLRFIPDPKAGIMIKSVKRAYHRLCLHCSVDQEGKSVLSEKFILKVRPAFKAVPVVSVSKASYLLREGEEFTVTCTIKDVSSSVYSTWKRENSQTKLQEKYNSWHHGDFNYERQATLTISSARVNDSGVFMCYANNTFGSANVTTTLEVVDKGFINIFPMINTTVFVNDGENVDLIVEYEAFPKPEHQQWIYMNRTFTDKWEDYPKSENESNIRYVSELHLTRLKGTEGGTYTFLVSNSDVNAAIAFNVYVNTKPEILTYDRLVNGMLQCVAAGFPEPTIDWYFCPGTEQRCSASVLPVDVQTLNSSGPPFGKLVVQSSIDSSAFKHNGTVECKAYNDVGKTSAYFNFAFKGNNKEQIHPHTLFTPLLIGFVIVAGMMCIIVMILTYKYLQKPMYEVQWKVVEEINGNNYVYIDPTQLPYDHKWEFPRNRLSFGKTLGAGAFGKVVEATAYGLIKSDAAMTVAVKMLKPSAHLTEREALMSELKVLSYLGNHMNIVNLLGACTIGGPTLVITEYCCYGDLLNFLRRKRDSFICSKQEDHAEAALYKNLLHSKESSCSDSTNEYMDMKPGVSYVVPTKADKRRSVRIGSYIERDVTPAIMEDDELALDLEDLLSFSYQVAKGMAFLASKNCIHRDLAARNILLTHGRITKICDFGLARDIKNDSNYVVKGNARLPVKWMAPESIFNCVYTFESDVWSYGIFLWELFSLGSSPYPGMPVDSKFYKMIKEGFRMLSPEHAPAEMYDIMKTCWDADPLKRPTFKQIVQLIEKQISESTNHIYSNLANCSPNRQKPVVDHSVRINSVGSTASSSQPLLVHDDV

By IC50 is commonly meant the concentration at which inhibition is half-maximal. The term inhibition denotes how much of the control response was suppressed. Take `COc1cc2nccc(Oc3ccc(NC(=S)NC(=O)c4ccc(Cl)s4)cc3Cl)c2cc1OC` [Example 695, N-{3-Chloro-4-[(6,7-dimethoxy-4-quinolyl)oxy]phenyl}-N′-[(5-chloro-2-thienyl)carbonyl]thiourea]: on PDGF-Ra, the half-inhibitory concentration (IC50) was over 100 nM and the inhibition at 0.1 µM turned out to be 10%. The inhibition at 1 µM on c-kit stood at 37%.
In the case of `COc1cc2nccc(Oc3ccc(NC(=S)NC(=O)CCSC)c(C)c3)c2cc1OC` [Example 696, N-{4-[(6,7-Dimethoxy-4-quinolyl)oxy]-2-methylphenyl}-N′-[3-(methylthio)propanoyl]-thiourea], on PDGF-Ra, the IC50 was over 100 nM and the inhibition at 0.1 µM was found to be 37%. Moreover, the inhibition at 1 µM on c-kit is 35%.
Turning to `COc1cc2nccc(Oc3ccc(NC(=S)NC(=O)CCSC)cc3Cl)c2cc1OC` [Example 697, N-{3-Chloro-4-[(6,7-dimethoxy-4-quinolyl)oxy]phenyl}-N′-[3-(methylthio)propanoyl]thiourea], the 50% inhibitory concentration (IC50) on PDGF-Ra is under 10 nM; at c-kit, 211 nM.
Turning to `COc1cc2nccc(Oc3ccc(NC(=S)NC(=O)c4cc(C)oc4C)c(C)c3)c2cc1OC` [Example 698, N-{4-[(6,7-Dimethoxy-4-quinolyl)oxy]-2-methylphenyl}-N′-[(2,5-dimethyl-3-furyl)carbonyl]thiourea], at PDGF-Ra, the IC50 was over 100 nM and the inhibition at 0.1 µM was 34%. The inhibition at 1 µM at c-kit stood at 29%.
For the compound `COc1cc2nccc(Oc3ccc(NC(=S)NC(=O)c4cc(C)oc4C)cc3Cl)c2cc1OC` [Example 699, N-{3-Chloro-4-[(6,7-dimethoxy-4-quinolyl)oxy]phenyl}-N′-[(2,5-dimethyl-3-furyl)carbonyl]thiourea], the IC50 on PDGF-Ra came to 13 nM. In addition, the inhibition at 1 µM on c-kit worked out at 29%.
On to `COc1cc2nccc(Oc3ccc(NC(=S)NC(=O)Cc4cccs4)c(C)c3)c2cc1OC` [Example 700, N-{4-[(6,7-Dimethoxy-4-quinolyl)oxy]-2-methylphenyl}-N′-[2-(2-thienyl)acetyl]thiourea], for which, on PDGF-Ra, the IC50 is over 100 nM and the inhibition at 0.1 µM turned out to be 30%. The inhibition at 1 µM at c-kit is 0%.
With `COc1cc2nccc(Oc3ccc(NC(=S)NC(=O)Cc4cccs4)cc3Cl)c2cc1OC` [Example 701, N-{3-Chloro-4-[(6,7-dimethoxy-4-quinolyl)oxy]phenyl}-N′-[2-(2-thienyl)acetyl]thiourea], the results for the IC50 on PDGF-Ra and at c-kit were under 10 nM and 459 nM, respectively.
As for `COc1cc2nccc(Oc3ccc(NC(=S)NC(=O)Cc4ccccc4C)cc3Cl)c2cc1OC` [Example 702, N-{3-Chloro-4-[(6,7-dimethoxy-4-quinolyl)oxy]phenyl}-N′-[2-(2-methylphenyl)acetyl]thiourea], the IC50 at PDGF-Ra is under 10 nM; on c-kit it was 495 nM.
The matching figures for `COc1cc2ncnc(Oc3ccc(NC(=S)NC(=O)Cc4ccccc4C)cc3)c2cc1OC` [Example 703, N-{4-[(6,7-Dimethoxy-4-quinazolinyl)oxy]phenyl}-N′-[2-(2-methylphenyl)acetyl]thiourea]: under 10 nM and 375 nM.
Consider `COc1cc2nccc(Oc3ccc(NC(=S)NC(=O)CC4CCCCC4)cc3Cl)c2cc1OC` [Example 704, N-{3-Chloro-4-[(6,7-dimethoxy-4-quinolyl)oxy]phenyl}-N′-(2-cyclohexylacetyl)thiourea], for which the concentration for half-maximal inhibition (IC50) was found to be 16 nM on PDGF-Ra and 177 nM on c-kit.
For the compound `COc1cc2ncnc(Oc3ccc(NC(=S)NC(=O)CC4CCCCC4)cc3)c2cc1OC` [Example 705, N-(2-Cyclohexylacetyl)-N′-{4-[(6,7-dimethoxy-4-quinazolinyl)oxy]phenyl}thiourea], the IC50 at PDGF-Ra is under 10 nM; at c-kit, 147 nM.
Regarding `COc1cc2nccc(Oc3ccc(NC(=S)NCc4ccccc4)cc3Cl)c2cc1OC` [Example 706, N-Benzyl-N′-{3-chloro-4-[(6,7-dimethoxy-4-quinolyl)oxy]phenyl}thiourea], the IC50 on PDGF-Ra is under 10 nM; on c-kit, 227 nM.
On to `COc1cc2ncnc(Oc3ccc(NC(=S)NCc4ccccc4)cc3)c2cc1OC` [Example 707, N-Benzyl-N′-{4-[(6,7-dimethoxy-4-quinazolinyl)oxy]phenyl}thiourea], for which the IC50 on PDGF-Ra was 17 nM; on c-kit it was 209 nM.
For `COc1cc2nccc(Oc3ccc(NC(=S)NC(=O)Cc4cccc5ccccc45)cc3Cl)c2cc1OC` [Example 708, N-{3-Chloro-4-[(6,7-dimethoxy-4-quinolyl)oxy]phenyl}-N′-[2-(1-naphthyl)acetyl]thiourea], the results for the IC50 at PDGF-Ra and at c-kit were 51 nM and 348 nM, respectively.
For `COc1cc2ncnc(Oc3ccc(NC(=S)NC(=O)Cc4cccc5ccccc45)cc3)c2cc1OC` [Example 709, N-{4-[(6,7-Dimethoxy-4-quinazolinyl)oxy]phenyl}-N′-[2-(1-naphthyl)acetyl]thiourea], on PDGF-Ra, the IC50 stood at 19 nM. Besides, the inhibition at 1 µM at c-kit was 19%.
On to `COc1cc2nccc(Oc3ccc(NC(=S)NC(=O)Cc4ccc5ccccc5c4)cc3Cl)c2cc1OC` [Example 710, N-{3-Chloro-4-[(6,7-dimethoxy-4-quinolyl)oxy]phenyl}-N′-[2-(2-naphthyl)acetyl]thiourea], for which, at PDGF-Ra, the IC50 was over 100 nM and the inhibition at 0.1 µM stood at 33%. Besides, at c-kit, the inhibition at 1 µM amounted to 30%.
For `COc1cc2ncnc(Oc3ccc(NC(=S)NC(=O)Cc4ccc5ccccc5c4)cc3)c2cc1OC` [Example 711, N-{4-[(6,7-Dimethoxy-4-quinazolinyl)oxy]phenyl}-N′-[2-(2-naphthyl)acetyl]thiourea], at PDGF-Ra, the IC50 was over 100 nM and the inhibition at 0.1 µM amounted to 34%. Also, the inhibition at 1 µM at c-kit turned out to be 17%.
For the compound `COc1ccc(CCC(=O)NC(=S)Nc2ccc(Oc3ncnc4cc(OC)c(OC)cc34)cc2)cc1OC` [Example 713, N-[3-(3,4-Dimethoxyphenyl)propanoyl]-N′-{4-[(6,7-dimethoxy-4-quinazolinyl)oxy]phenyl}thiourea], the concentration for half-maximal inhibition (IC50) was 67 nM at PDGF-Ra and 89 nM at c-kit.
For `COc1cc2nccc(Oc3ccc(NC(=S)NC(=O)COc4ccccc4Cl)cc3Cl)c2cc1OC` [Example 714, N-{3-Chloro-4-[(6,7-dimethoxy-4-quinolyl)oxy]phenyl}-N′-[2-(2-chlorophenoxy)acetyl]thiourea], the half-maximal inhibitory concentration (IC50) at PDGF-Ra amounted to 16 nM; at c-kit, 248 nM.
As to `CCOc1ccc(C(=O)NC(=S)Nc2ccc(Oc3ncnc4cc(OC)c(OC)cc34)cc2)cc1` [Example 716, N-{4-[(6,7-Dimethoxy-4-quinazolinyl)oxy]phenyl}-N′-(4-ethoxybenzoyl)thiourea], on PDGF-Ra, the IC50 worked out at 11 nM. Further, at c-kit, the inhibition at 1 µM was 19%.
As for `COc1cc2ncnc(Oc3ccc(NC(=S)NC(=O)c4cc(C)oc4C)cc3)c2cc1OC` [Example 718, N-{4-[(6,7-Dimethoxy-4-quinazolinyl)oxy]phenyl}-N′-[(2,5-dimethyl-3-furyl)carbonyl]thiourea], the IC50 on PDGF-Ra is under 10 nM. The inhibition at 1 µM at c-kit is 19%.
On to `CCCCC(=O)NC(=S)Nc1ccc(Oc2ccnc3cc(OC)c(OC)cc23)c(Cl)c1` [Example 719, N-{3-Chloro-4-[(6,7-dimethoxy-4-quinolyl)oxy]phenyl}-N′-pentanoylthiourea], for which the values for the concentration for half-maximal inhibition (IC50) on PDGF-Ra and at c-kit were 14 nM and 431 nM, respectively.
The matching figures for `CCCCC(=O)NC(=S)Nc1ccc(Oc2ncnc3cc(OC)c(OC)cc23)cc1` [Example 720, N-{4-[(6,7-Dimethoxy-4-quinazolinyl)oxy]phenyl}-N′-pentanoylthiourea]: 42 nM and 30 nM.
As to `COc1cc2nccc(Oc3ccc(NC(=S)NC(=O)CCc4ccc(C)cc4)cc3)c2cc1OC` [Example 721, N-{4-[(6,7-Dimethoxy-4-quinolyl)oxy]phenyl}-N′-[3-(4-methylphenyl)propanoyl]thiourea], the half-inhibitory concentration (IC50) at PDGF-Ra was 36 nM. The inhibition at 1 µM at c-kit worked out at 20%.
With `COc1cc2ncnc(Oc3ccc(NC(=S)NC(=O)CCc4ccc(C)cc4)cc3)c2cc1OC` [Example 722, N-{4-[(6,7-Dimethoxy-4-quinazolinyl)oxy]phenyl}-N′-[3-(4-methylphenyl)propanoyl]thiourea], the figures for the IC50 at PDGF-Ra and on c-kit were under 10 nM and 85 nM, respectively.
For the compound `COc1cc2nccc(Oc3ccc(NC(=S)NC(=O)Cc4ccccc4Cl)cc3)c2cc1OC` [Example 723, N-[2-(2-Chlorophenyl)acetyl]-N′-{4-[(6,7-dimethoxy-4-quinolyl)oxy]phenyl}thiourea], the 50% inhibitory concentration (IC50) stood at 17 nM at PDGF-Ra and 380 nM at c-kit.
Regarding `COc1cc2ncnc(Oc3ccc(NC(=S)NC(=O)Cc4ccccc4Cl)cc3)c2cc1OC` [Example 724, N-[2-(2-Chlorophenyl)acetyl]-N′-{4-[(6,7-dimethoxy-4-quinazolinyl)oxy]phenyl}thiourea], the IC50 is under 10 nM at PDGF-Ra and 116 nM on c-kit.
In the case of `COc1cc2nccc(Oc3ccc(NC(=S)NC(=O)CCCc4ccccc4)cc3)c2cc1OC` [Example 725, N-{4-[(6,7-Dimethoxy-4-quinolyl)oxy]phenyl}-N′-(4-phenylbutanoyl)thiourea], the IC50 at PDGF-Ra is under 10 nM; at c-kit it was 413 nM.
Consider `COc1cc2nccc(Oc3ccc(NC(=S)NC(=O)CCCc4ccccc4)cc3Cl)c2cc1OC` [Example 726, N-{3-Chloro-4-[(6,7-dimethoxy-4-quinolyl)oxy]phenyl}-N′-(4-phenylbutanoyl)thiourea], for which the half-inhibitory concentration (IC50) at PDGF-Ra is 37 nM; on c-kit, 624 nM.

The values above are taken from US7135466B2 (Kirin Beer Kabushiki Kaisha, priority 1999, dated 2006).
